Test systems include EKVX NSCLC; SNB-75 CNS; OVCAR-4 ovarian; HL-60(TB) leukemia; K-562 leukemia; RXF 393 renal; SF-539 CNS; NCI-H226 lung; SF-268 CNS; TK-10 renal.
What all share (assay): DTP human tumour cell line panel, 48 h

Data on eight compounds can be found in PubChem BioAssay (NCI).

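48-hour exposure; five concentrations; linearly interpolated endpoints. GI50 = concentration required for 50% inhibition of growth. Definition used: TGI = concentration required for complete inhibition of growth.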

Turning to `O=C(NCCNc1nccc(-c2c(-c3cccc(O)c3)nc3sccn23)n1)c1ccccc1O`, the GI50 is 11.8 µM in the test with EKVX NSCLC; 2.29 µM with SNB-75 CNS; 6.67 µM with OVCAR-4 ovarian; 3.38 µM in the test with HL-60(TB) leukemia; 4.11 µM in the test with K-562 leukemia; 2.78 µM in the test on RXF 393 renal. Besides, the GI50 in the test with SF-539 CNS is 7.27 µM; in the test on NCI-H226 lung, 9.24 µM; in the test with SF-268 CNS, 5.4 µM; in the test with TK-10 renal, 6.17 µM. The TGI in the test on EKVX NSCLC is 50.9 µM; in the test with SNB-75 CNS it was 19.6 µM; in the test on OVCAR-4 ovarian it was 53.6 µM; with HL-60(TB) leukemia it was more than 29.4 µM; in the test with K-562 leukemia, more than 100 µM; in the test with RXF 393 renal, 16.8 µM. In addition, the TGI turned out to be 24.5 µM in the test on SF-539 CNS, 32.3 µM in the test on NCI-H226 lung, 46.6 µM in the test with SF-268 CNS and 30.3 µM in the test on TK-10 renal.

Take `O=C1c2ccccc2C(=O)c2sc(Nc3cccc(Cl)c3)nc21`: the TGI amounted to 4.89 µM in the test on EKVX NSCLC; 3.67 µM in the test with SNB-75 CNS; 2.72 µM in the test on OVCAR-4 ovarian; 0.444 µM with HL-60(TB) leukemia; 4.36 µM in the test with K-562 leukemia; 3.19 µM with RXF 393 renal. The TGI amounted to 3.44 µM in the test with SF-539 CNS, 6.25 µM with NCI-H226 lung, 4.69 µM with SF-268 CNS and 5.39 µM with TK-10 renal.

For the compound `COc1cc(C(=O)/C=C/c2sc(Cl)nc2Cl)cc(OC)c1OC`, the GI50 in the test on EKVX NSCLC is 1.67 µM; in the test with SNB-75 CNS it was 1.66 µM; with OVCAR-4 ovarian it was 1.77 µM; in the test on HL-60(TB) leukemia, 1.82 µM; with K-562 leukemia it was 1.84 µM; in the test on RXF 393 renal, 1.7 µM. Besides, the GI50 was 1.72 µM in the test with SF-539 CNS, 2.4 µM in the test with NCI-H226 lung, 1.79 µM with SF-268 CNS and 2.06 µM with TK-10 renal. Moreover, the TGI is 3.12 µM in the test with EKVX NSCLC; 3.8 µM in the test on SNB-75 CNS; 3.19 µM in the test with OVCAR-4 ovarian; 4.45 µM in the test with HL-60(TB) leukemia; more than 100 µM in the test with K-562 leukemia; 3.12 µM in the test on RXF 393 renal. Further, the TGI is 3.12 µM with SF-539 CNS, 6.31 µM in the test on NCI-H226 lung, 3.77 µM in the test with SF-268 CNS and 4.93 µM in the test on TK-10 renal.

Take `Fc1ccc(Nc2ncnc3ccc(-c4cnc5[nH]ccc5c4)cc23)cc1Cl`: the GI50 in the test with EKVX NSCLC is 0.769 µM; in the test on SNB-75 CNS, 1.23 µM; with OVCAR-4 ovarian, 1.51 µM; in the test on HL-60(TB) leukemia, 7.76 µM; in the test on K-562 leukemia it was 3.48 µM; in the test on RXF 393 renal, 1.53 µM. Besides, the GI50 with SF-539 CNS is 2.3 µM; with NCI-H226 lung, 1.99 µM; with SF-268 CNS it was 3.47 µM; in the test on TK-10 renal, 0.292 µM. Moreover, the TGI in the test on EKVX NSCLC is more than 100 µM; with SNB-75 CNS, 3.42 µM; with OVCAR-4 ovarian it was 3.92 µM; with HL-60(TB) leukemia, 40.1 µM; with K-562 leukemia it was more than 100 µM; in the test on RXF 393 renal, 6.27 µM. The TGI in the test on SF-539 CNS is 7.65 µM; in the test on NCI-H226 lung it was 4.97 µM; in the test on SF-268 CNS it was more than 73.4 µM; in the test on TK-10 renal it was 13.8 µM.

As for `O=C(Nc1ccc(I)cc1)c1cc([N+](=O)[O-])ccc1O`, the GI50 with EKVX NSCLC is 6.72 µM; in the test on SNB-75 CNS, 8.89 µM; with OVCAR-4 ovarian it was 4.57 µM; in the test with HL-60(TB) leukemia, 5.44 µM; in the test with K-562 leukemia, 4.69 µM; in the test with RXF 393 renal it was 2.86 µM. The GI50 with SF-539 CNS is 11.4 µM; in the test on NCI-H226 lung, 6.19 µM; with SF-268 CNS, 7.03 µM; in the test with TK-10 renal, 9.9 µM. Also, the TGI with EKVX NSCLC is more than 100 µM; in the test on SNB-75 CNS it was 67 µM; in the test on OVCAR-4 ovarian it was 90.8 µM; in the test on HL-60(TB) leukemia, 57.8 µM; in the test with K-562 leukemia it was more than 100 µM; in the test on RXF 393 renal, 23.7 µM. The concentration for total growth inhibition (TGI) was 80 µM in the test on SF-539 CNS, 80.4 µM in the test on NCI-H226 lung, more than 100 µM with SF-268 CNS and more than 100 µM with TK-10 renal.

With `COc1cc2nc(C)nc(N[C@H](C)c3cc(N)cc(C(F)(F)F)c3)c2cc1O[C@H]1CCOC1`, the GI50 was 11.1 µM with EKVX NSCLC; 10.4 µM in the test with SNB-75 CNS; 17 µM in the test with OVCAR-4 ovarian; 14 µM with HL-60(TB) leukemia; 0.489 µM in the test on K-562 leukemia; 5.88 µM in the test with RXF 393 renal. Further, the GI50 is 12.4 µM in the test with SF-539 CNS, 16.9 µM in the test on NCI-H226 lung, 12.5 µM in the test with SF-268 CNS and 2.9 µM in the test on TK-10 renal. The TGI worked out at 26.5 µM with EKVX NSCLC; 23.3 µM in the test on SNB-75 CNS; 55.1 µM with OVCAR-4 ovarian; 39.2 µM in the test with HL-60(TB) leukemia; 23.2 µM in the test with K-562 leukemia; 22 µM in the test with RXF 393 renal. The TGI in the test with SF-539 CNS was 25.1 µM; with NCI-H226 lung, 38.8 µM; in the test with SF-268 CNS it was 31.6 µM; in the test with TK-10 renal it was 20.6 µM.

Take `CN(C)CCCNC1=C(Cl)C(=O)c2ccccc2C1=O`: the GI50 in the test on EKVX NSCLC is 1.72 µM; in the test with SNB-75 CNS, 1.36 µM; with OVCAR-4 ovarian, 1.62 µM; in the test with HL-60(TB) leukemia it was 2.54 µM; with K-562 leukemia, 2.47 µM; in the test on RXF 393 renal, 1.69 µM. The GI50 in the test on SF-539 CNS was 12.8 µM; with NCI-H226 lung it was 5.38 µM; in the test with SF-268 CNS it was 4.88 µM; in the test with TK-10 renal it was 15.4 µM. Also, the TGI with EKVX NSCLC turned out to be 3.41 µM; in the test on SNB-75 CNS it was 2.67 µM; in the test on OVCAR-4 ovarian, 2.98 µM; in the test on HL-60(TB) leukemia, 5.84 µM; in the test with K-562 leukemia, 6.03 µM; in the test on RXF 393 renal, 3.14 µM. Further, the TGI in the test with SF-539 CNS was found to be 27 µM; in the test with NCI-H226 lung it was 10.6 µM; in the test with TK-10 renal, 29 µM.

For `CNC(=O)c1ccccc1Nc1nc(Nc2ccc(N3CCOCC3)cc2OC)ncc1Cl`, the GI50 is 0.274 µM in the test on EKVX NSCLC; 0.766 µM with SNB-75 CNS; 1.95 µM with OVCAR-4 ovarian; 0.206 µM with HL-60(TB) leukemia; 4.75 µM with K-562 leukemia; 0.797 µM in the test with RXF 393 renal. Also, the GI50 in the test on SF-539 CNS was 1.29 µM; in the test on NCI-H226 lung it was 1.01 µM; in the test on SF-268 CNS, 1.57 µM; in the test on TK-10 renal, 0.197 µM. In addition, the TGI was more than 24.7 µM in the test with EKVX NSCLC; 5.44 µM in the test on SNB-75 CNS; more than 47.1 µM in the test with OVCAR-4 ovarian; more than 57.1 µM with HL-60(TB) leukemia; more than 90.5 µM in the test on K-562 leukemia; 3.31 µM in the test on RXF 393 renal. Besides, the total growth inhibition concentration (TGI) is 7.68 µM with SF-539 CNS, more than 74 µM with NCI-H226 lung, more than 100 µM with SF-268 CNS and 2.01 µM with TK-10 renal.

One may read the GI50 as the concentration giving 50% growth inhibition. Usually TGI stands for the concentration at which net growth stops.
